Test results as given in US20230147942A1, “PHARMACEUTICAL COMPOSITION COMPRISING NEW LACTOBACILLUS PLANTARUM KC3 STRAIN AND LEONURUS JAPONICUS EXTRACT AS ACTIVE INGREDIENTS FOR PREVENTING OR TREATING RESPIRATORY DISEASE AND USE THEREOF” (KT&G CORPORATION, priority 2020, published 2023).
Where a SMILES comes first, the peptide text is derived from it. Bridges are numbered along the chain shown (N, C = ends). [ ]: non-standard residue; d: D form. The star is where a group is joined. Ileψ(thiazoline)Cys = CC[C@H](C)[C@H](N)C1=N[C@H](C(=O)*)CS1; dOrn = NCCC[C@@H](N)C(=O)O

The compounds below were run on Lactobacillus plantarum KC3 (assay: Antibiotic susceptibility of strain (antibiotic strips on LSM solid medium)). Details: 37° C., 24 hours.
Assay type: cell-based
Procedure: In order to confirm antibiotics resistance level of the new lactic acid bacteria from the of the Lactobacillus plantarum KC3 the present disclosure, an experiment was performed as follows by applying the method described in the document
To measure the antibiotics resistance level of the strain, an MIC test was carried out. Lactic acid bacteria that were inoculated into an MRS medium (DF0881-17-5, Difco) and cultured at 37° C. for 18 hours were spread on an LSM solid medium (90% iso-sensitest broth (CM0473, Oxoid), 10% MRS medium (DF0881-17-5, Difco), and 1.5% agar (214010, Difco)). Strips for each type of antibiotics, such as Amikacin (92018, Liofilchem srl), Gentamycin (92009, Liofilchem srl), Kanamycin (92034, Liofilchem srl), Streptomycin (92112, Liofilchem srl), Penicillin-G (92102, Liofilchem srl), Oxacillin (92015, Liofilchem srl), Ampicillin (920030, Liofilchem srl), Bacitracin (92019, Liofilchem srl), Rifampicin (92001, Liofilchem srl), Polymyxin B (92004, Liofilchem srl), Chloramphenico 1(92075, Liofilchem srl), Vancomycin (92057, Liofilchem srl), and the like, were put on the medium, and the bacteria were grown at 37° C. for 24 hours.
In Table 4, R indicates resistance and represents that the size of an inhibition zone is about 0 mm; IS indicates mediate resistance and represents that the size of an inhibition zone is in a range of about 1 mm to about 5 mm; and S indicates susceptibility and represents that the size of an inhibition zone is greater than about 5 mm.

Compound | Antibiotic resistance (class) | Antibiotic resistance, size of inhibition zone [mm]
Neomycin | IS (IS indicates mediate resistance and represents that the size of an inhibition zone is in a range of about 1 mm to about 5 mm) | 3
CC1(C)S[C@@H]2[C@H](NC(=O)Cc3ccccc3)C(=O)N2[C@H]1C(=O)O [Penicillin-G] | IS (IS indicates mediate resistance and represents that the size of an inhibition zone is in a range of about 1 mm to about 5 mm) | 5
CC1(C)S[C@@H]2[C@H](NC(=O)[C@H](N)c3ccccc3)C(=O)N2[C@H]1C(=O)O [Ampicillin] | S (S indicates susceptibility and represents that the size of an inhibition zone is greater than about 5 mm) | 14
[H]/N=C(/N)N[C@H]1[C@H](O)[C@@H](O)[C@H](O[C@@H]2O[C@@H](C)[C@](O)(C=O)[C@H]2O[C@@H]2O[C@@H](CO)[C@H](O)[C@@H](O)[C@@H]2NC)[C@@H](N/C(N)=N\[H])[C@@H]1O [Streptomycin] | R (R indicates resistance and represents that the size of an inhibition zone is about 0 mm) | 0
Polymyxin B | R (R indicates resistance and represents that the size of an inhibition zone is about 0 mm) | 0
CCC[C@@H]1C[C@@H](C(=O)N[C@@H]([C@H]2O[C@H](SC)[C@H](O)[C@@H](O)[C@H]2O)[C@@H](C)O)N(C)C1 [Lincomycin] | S (S indicates susceptibility and represents that the size of an inhibition zone is greater than about 5 mm) | 10
CC[C@H](C)[C@H](N)C1=N[C@H](C(=O)N[C@@H](CC(C)C)C(=O)N[C@H](CCC(=O)O)C(=O)N[C@H](C(=O)N[C@H]2CCCCNC(=O)[C@H](CC(N)=O)NC(=O)[C@@H](CC(=O)O)NC(=O)[C@H](Cc3cnc[nH]3)NC(=O)[C@@H](Cc3ccccc3)NC(=O)[C@H]([C@@H](C)CC)NC(=O)[C@@H](CCCN)NC2=O)[C@@H](C)CC)CS1 [Bacitracin] ({Ileψ(thiazoline)Cys}-L[dE]IK[dOrn]I[dF]H[dD]N; lactam 4-C) | S (S indicates susceptibility and represents that the size of an inhibition zone is greater than about 5 mm) | 7
CN[C@H](CC(C)C)C(=O)N[C@H]1C(=O)N[C@@H](CC(N)=O)C(=O)N[C@H]2C(=O)N[C@H]3C(=O)N[C@H](C(=O)N[C@H](C(=O)O)c4cc(O)cc(O)c4-c4cc3ccc4O)[C@H](O)c3ccc(c(Cl)c3)Oc3cc2cc(c3O[C@@H]2O[C@H](CO)[C@@H](O)[C@H](O)[C@H]2O[C@H]2C[C@](C)(N)[C@H](O)[C@H](C)O2)Oc2ccc(cc2Cl)[C@H]1O [Vancomycin] | R (R indicates resistance and represents that the size of an inhibition zone is about 0 mm) | 0
CO[C@@H]1[C@@H](OC(N)=O)[C@@H](O)[C@H](Oc2ccc3c(O)c(NC(=O)c4ccc(O)c(CC=C(C)C)c4)c(=O)oc3c2C)OC1(C)C [Novabiocin] | S (S indicates susceptibility and represents that the size of an inhibition zone is greater than about 5 mm) | 7
NC[C@H]1O[C@H](O[C@H]2[C@H](O)[C@@H](O[C@H]3O[C@H](CO)[C@@H](O)[C@H](N)[C@H]3O)[C@H](N)C[C@@H]2N)[C@H](O)[C@@H](O)[C@@H]1O [Kanamycin] | R (R indicates resistance and represents that the size of an inhibition zone is about 0 mm) | 0
Cc1onc(-c2ccccc2)c1C(=O)N[C@@H]1C(=O)N2[C@@H]1SC(C)(C)[C@@H]2C(=O)O [Oxacillin] | IS (IS indicates mediate resistance and represents that the size of an inhibition zone is in a range of about 1 mm to about 5 mm) | 2
O=C(N[C@H](CO)[C@H](O)c1ccc([N+](=O)[O-])cc1)C(Cl)Cl [Chloramphenicol] | S (S indicates susceptibility and represents that the size of an inhibition zone is greater than about 5 mm) | 10
CO[C@H]1/C=C/O[C@@]2(C)Oc3c(C)c(O)c4c(O)c(c(/C=N/N5CCN(C)CC5)c(O)c4c3C2=O)NC(=O)/C(C)=C\C=C\[C@H](C)[C@H](O)[C@@H](C)[C@@H](O)[C@@H](C)[C@H](OC(C)=O)[C@@H]1C [Rifampicin] | S (S indicates susceptibility and represents that the size of an inhibition zone is greater than about 5 mm) | 7
Gentamycin | IS (IS indicates mediate resistance and represents that the size of an inhibition zone is in a range of about 1 mm to about 5 mm) | 3
NCC[C@H](O)C(=O)N[C@@H]1C[C@H](N)[C@@H](O[C@H]2O[C@H](CN)[C@@H](O)[C@H](O)[C@H]2O)[C@H](O)[C@H]1O[C@H]1O[C@H](CO)[C@@H](O)[C@H](N)[C@H]1O [Amikacin] | IS (IS indicates mediate resistance and represents that the size of an inhibition zone is in a range of about 1 mm to about 5 mm) | 1
